Measured values as given in patent US9845330B2, “6-nitro-2,3-dihydroimidazo[2,1-b]oxazoles and a process for the preparation thereof” (priority 2013, dated 2017).
Converted amounts (≈) assume the structure as drawn.

Tests used:
[1] = tested on: M. tuberculosis MDR (resistant to isoniazid and rifampicin); assay: microbe, parasite or virus in culture; type: cell-based; conditions: Mycobacterium tuberculosis, 504 h, read-out: MIC M. tb MDR
[2] = tested on: M. tuberculosis XDR (resistant to isoniazid, rifampicin, amikacin and moxifloxacin); assay: microbe, parasite or virus in culture; type: cell-based; conditions: Mycobacterium tuberculosis, 504 h, read-out: MIC M. tb XDR

Row | Structure (SMILES) | MIC [1] [µg/mL] | MIC [2] [µg/mL]
1 | CCCCCc1cc(-c2ccc(OC[C@@]3(C)Cn4cc([N+](=O)[O-])nc4O3)cc2)no1 [IC11, (R)-2-{4-[5-pentylisoxazol-3-yl]phenoxymethyl}-2,3-dihydro-2-methyl-6-nitroimidazo[2,1-b]oxazole] | 32 (≈ 77.6 µM) | 32 (≈ 77.6 µM)
2 | CCCCCCCc1cc(-c2ccc(OC[C@@]3(C)Cn4cc([N+](=O)[O-])nc4O3)cc2)no1 [IC12, (R)-2-{4-[5-heptylisoxazol-3-yl]phenoxymethyl}-2,3-dihydro-2-methyl-6-nitroimidazo[2,1-b]oxazole] | 2 (≈ 4.54 µM) | 2 (≈ 4.54 µM)
3 | C[C@]1(COc2ccc(-c3cc(COc4ccc(OC(F)(F)F)cc4)on3)cc2)Cn2cc([N+](=O)[O-])nc2O1 [IC13, (R)-2-{4-[5-(4-trifluoromethoxyphenoxymethyl)isoxazol-3-yl]phenoxymethyl}-2,3-dihydro-2-methyl-6-nitroimidazo[2,1-b]oxazole] | 0.12 (≈ 0.225 µM) | 0.12 (≈ 0.225 µM)
4 | C[C@]1(COc2ccc(-c3cc(COc4ccc(F)cc4)on3)cc2)Cn2cc([N+](=O)[O-])nc2O1 [IC14, (R)-2-{4-[5-(4-fluorophenoxymethyl)isoxazol-3-yl]phenoxymethyl}-2,3-dihydro-2-methyl-6-nitroimidazo[2,1-b]oxazole] | 0.12 (≈ 0.257 µM) | 0.12 (≈ 0.257 µM)
5 | C[C@]1(COc2ccc(-c3cc(COc4ccc(C(F)(F)F)cc4)on3)cc2)Cn2cc([N+](=O)[O-])nc2O1 [IC15, (R)-2-{4-[5-(4-trifluoromethylphenoxymethyl)isoxazol-3-yl]phenoxymethyl}-2,3-dihydro-2-methyl-6-nitroimidazo[2,1-b]oxazole] | 0.5 (≈ 0.968 µM) | 0.5 (≈ 0.968 µM)
6 | C[C@]1(COc2ccc(-c3cc(COc4ccccc4F)on3)cc2)Cn2cc([N+](=O)[O-])nc2O1 [IC16, (R)-2-{4-[5-(2-fluorophenoxymethyl)isoxazol-3-yl]phenoxymethyl}-2,3-dihydro-2-methyl-6-nitroimidazo[2,1-b]oxazole] | 0.5 (≈ 1.07 µM) | 0.5 (≈ 1.07 µM)
7 | Cc1ccc(OCc2cc(-c3ccc(OC[C@@]4(C)Cn5cc([N+](=O)[O-])nc5O4)cc3)no2)cc1 [IC17, (R)-2-{4-[5-(4-methylphenoxymethyl)isoxazol-3-yl]phenoxymethyl}-2,3-dihydro-2-methyl-6-nitroimidazo[2,1-b]oxazole] | 0.5 (≈ 1.08 µM) | 0.5 (≈ 1.08 µM)
8 | CC(C)c1ccc(OCc2cc(-c3ccc(OC[C@@]4(C)Cn5cc([N+](=O)[O-])nc5O4)cc3)no2)cc1 [IC18, (R)-2-{4-[5-(4-isopropylphenoxymethyl)isoxazol-3-yl]phenoxymethyl}-2,3-dihydro-2-methyl-6-nitroimidazo[2,1-b]oxazole] | 0.25 (≈ 0.51 µM) | 0.25 (≈ 0.51 µM)
9 | CCc1ccc(OCc2cc(-c3ccc(OC[C@@]4(C)Cn5cc([N+](=O)[O-])nc5O4)cc3)no2)cc1 [IC19, (R)-2-{4-[5-(4-ethylphenoxymethyl)isoxazol-3-yl]phenoxymethyl}-2,3-dihydro-2-methyl-6-nitroimidazo[2,1-b]oxazole] | 2 (≈ 4.2 µM) | 2 (≈ 4.2 µM)
10 | CCC(C)c1ccc(OCc2cc(-c3ccc(OC[C@@]4(C)Cn5cc([N+](=O)[O-])nc5O4)cc3)no2)cc1 (stereo partly drawn) [IC20, (R)-2-{4-[5-(4-sec-butylphenoxymethyl)isoxazol-3-yl]phenoxymethyl}-2,3-dihydro-2-methyl-6-nitroimidazo[2,1-b]oxazole] | 2 (≈ 3.96 µM) | 2 (≈ 3.96 µM)
11 | C[C@]1(COc2ccc(-c3cc(COc4ccccc4)on3)cc2)Cn2cc([N+](=O)[O-])nc2O1 [IC21, (R)-2-{4-[5-(phenoxymethyl)isoxazol-3-yl]phenoxymethyl}-2,3-dihydro-2-methyl-6-nitroimidazo[2,1-b]oxazole] | 4 (≈ 8.92 µM) | 4 (≈ 8.92 µM)
12 | C[C@]1(COc2ccc(-c3cc(COc4ccc(F)cc4F)on3)cc2)Cn2cc([N+](=O)[O-])nc2O1 [IC22, (R)-2-{4-[5-(2,4-difluorophenoxymethyl)isoxazol-3-yl]phenoxymethyl}-2,3-dihydro-2-methyl-6-nitroimidazo[2,1-b]oxazole] | 0.12 (≈ 0.248 µM) | 0.12 (≈ 0.248 µM)
13 | C[C@]1(COc2ccc(NC(=O)Nc3ccc(F)cc3)cc2)Cn2cc([N+](=O)[O-])nc2O1 [IIA1, (R)-1-(4-fluorophenyl)-3-{4-(2-methyl-6-nitro-2,3-dihydroimidazo[2,1-b]oxazol-2-yl)methoxyphenyl}urea] | 2 (≈ 4.68 µM) | 2 (≈ 4.68 µM)
14 | CCc1ccc(NC(=O)Nc2ccc(OC[C@@]3(C)Cn4cc([N+](=O)[O-])nc4O3)cc2)cc1 [IIA2, (R)-1-(4-ethylphenyl)-3-{4-(2-methyl-6-nitro-2,3-dihydroimidazo[2,1-b]oxazol-2-yl)methoxyphenyl}urea] | 0.5 (≈ 1.14 µM) | 0.5 (≈ 1.14 µM)
15 | C[C@]1(COc2ccc(NC(=O)Nc3ccc(C(F)(F)F)cc3)cc2)Cn2cc([N+](=O)[O-])nc2O1 [IIA3, (R)-1-(4-trifluoromethylphenyl)-3-{4-(2-methyl-6-nitro-2,3-dihydroimidazo[2,1-b]oxazol-2-yl)methoxyphenyl}urea] | 0.12 (≈ 0.251 µM) | 0.12 (≈ 0.251 µM)
16 | Cc1ccc(NC(=O)Nc2ccc(OC[C@@]3(C)Cn4cc([N+](=O)[O-])nc4O3)cc2)cc1 [IIA4, (R)-1-(4-methylphenyl)-3-{4-(2-methyl-6-nitro-2,3-dihydroimidazo[2,1-b]oxazol-2-yl)methoxyphenyl}urea] | 0.06 (≈ 0.142 µM) | 0.06 (≈ 0.142 µM)
17 | COc1ccc(NC(=O)Nc2ccc(OC[C@@]3(C)Cn4cc([N+](=O)[O-])nc4O3)cc2)cc1 [IIA5, (R)-1-(4-methoxyphenyl)-3-{4-(2-methyl-6-nitro-2,3-dihydroimidazo[2,1-b]oxazol-2-yl)methoxyphenyl}urea] | 1 (≈ 2.28 µM) | 1 (≈ 2.28 µM)
18 | C[C@]1(COc2ccc(NC(=O)Nc3ccc(OC(F)(F)F)cc3)cc2)Cn2cc([N+](=O)[O-])nc2O1 [IIA6, (R)-1-(4-trifluoromethoxyphenyl)-3-{4-(2-methyl-6-nitro-2,3-dihydroimidazo[2,1-b]oxazol-2-yl)methoxyphenyl}urea] | 0.5 (≈ 1.01 µM) | 0.5 (≈ 1.01 µM)
19 | COc1ccc(NC(=S)Nc2ccc(OC[C@@]3(C)Cn4cc([N+](=O)[O-])nc4O3)cc2)cc1 [IIA7, (R)-1-(4-methoxyphenyl)-3-{4-(2-methyl-6-nitro-2,3-dihydroimidazo[2,1-b]oxazol-2-yl)methoxyphenyl}thiourea] | 2 (≈ 4.39 µM) | 2 (≈ 4.39 µM)
20 | C[C@]1(COc2ccc(NC(=S)Nc3ccc(OC(F)(F)F)cc3)cc2)Cn2cc([N+](=O)[O-])nc2O1 [IIA8, (R)-1-(4-trifluoromethoxyphenyl)-3-{4-(2-methyl-6-nitro-2,3-dihydroimidazo[2,1-b]oxazol-2-yl)methoxyphenyl}thiourea] | 2 (≈ 3.93 µM) | 2 (≈ 3.93 µM)
21 | C[C@]1(COc2ccc(NC(=S)Nc3ccc(F)cc3)cc2)Cn2cc([N+](=O)[O-])nc2O1 [IIA9, (R)-1-(4-fluorophenyl)-3-{4-(2-methyl-6-nitro-2,3-dihydroimidazo[2,1-b]oxazol-2-yl)methoxyphenyl}thiourea] | 4 (≈ 9.02 µM) | 4 (≈ 9.02 µM)
22 | C[C@]1(COc2ccc(NC(=S)Nc3ccc(C(F)(F)F)cc3)cc2)Cn2cc([N+](=O)[O-])nc2O1 [IIA10, (R)-1-(4-trifluoromethylphenyl)-3-{4-(2-methyl-6-nitro-2,3-dihydroimidazo[2,1-b]oxazol-2-yl)methoxyphenyl}thiourea] | 4 (≈ 8.11 µM) | 4 (≈ 8.11 µM)
